Data as given in patent US20230139543A1, “COMPOUNDS FOR USE IN A METHOD OF TREATING, PREVENTING AND/OR REDUCING THE SYMPTOMS OF PAIN” (The Beckley Foundation, priority 2020, published 2023).
“Also recorded” adds a separate entry of the source.

Tests used:
[1] = Pharmacokinetics: LSD plasma levels by UHPLC-MS/MS; assay type: in vivo; details: both sexes, human, single oral dose 20 μg LSD, read-out: mean (SD) plasma LSD concentration
Procedure: (§1) Twenty-four healthy participants (12 male, 12 female) participated in a randomized, double-blind, placebo-controlled, within-subject study in which they received single oral doses of 20 μg LSD (hydrate) and placebo on 4 separate test days. A minimum washout of 5 days proceeded in between to avoid carry-over effects. Treatment orders were randomly assigned to participants according to a balanced block design. LSD was formulated as a solution of 25 μg LSD base in 1 ml 96% ethanol according to GMP and administered orally. LSD doses (0.8 ml for 20 μg LSD) were supplemented with an ethanol solution up to a total volume 1 ml and administered with a syringe under the tongue. Placebo consisted of a 1 ml ethanol solution only. Treatments were administered at 10 AM.
At 1.5 and 5 hours post treatment, participants conducted a Cold Pressor Test (further described below). […] Vital signs were recorded at baseline, every 30 minutes during the first three hours after dosing, and at every hour thereafter. […]
Blood samples were centrifuged, and plasma was frozen at −20° C. until analysis for pharmacokinetic assessments. LSD plasma levels were analysed by ultra-high-performance liquid chromatography tandem mass spectrometry (UHPLC-MS/MS) as previously described previously. PK Samples with a LSD concentration below […] were re-analysed by a different extraction procedure. […]

healthy participants [2] = test: Vital signs (heart rate, blood pressure); assay type: in vivo, human; details: single oral dose 20 μg LSD vs placebo; data not shown
Procedure: as §1
(§2) At 1.5 and 5 hours post treatment, participants conducted a Cold Pressor Test (further described below). The Brief Symptom Inventory and the Clinician Administered Dissociation State Scale (CADSS) were administered prior to treatment administration (baseline) and at the end of a test day, i.e. at 6 hours post dosing. Vital signs were recorded at baseline, every 30 minutes during the first three hours after dosing, and at every hour thereafter. Blood samples were collected at every hour. Participants resided in a secluded room that contained a bed, table and chairs. Standardized lunches were provided around 12 AM.
Heart rate (bpm) and blood pressure (mmHg) were repeatedly assessed using an Omron M6 (HEM-7321-E, Omron Healthcare Europe By) device.
(§3) Analyses were carried out by means of the SPSS 25 program series to investigate whether the effects of LSD doses differed from those of placebo. CPT parameters and baseline adjusted parameters of vital signs were analysed using a three factor ANOVA to assess main effects of Treatment, Time after treatment and Participant as well as the interaction Treatment×Time after treatment. Mean contrast (LSD dose versus placebo) tests were conducted for measuring the significance of individual dose effects, relative to placebo. […]

healthy participants [3] = test: Cold Pressor Test (CPT), placebo-controlled trial; assay type: in vivo, human; details: single oral dose 20 μg LSD vs placebo, 1.5 and 5 hours post treatment
Procedure: as §1, §2
The CPT was used to induce a painful sensation according to previously validated procedure (Smeets et al. Psychoneuroend. 2012, 37, 1998-2008). The CPT is the most commonly used test to induce conditioned pain modulation and to evaluate analgesic properties such as pain tolerance in healthy subjects (see, for instance, Okkerse et al. Br J Clin Pharmacol. 2017, 83(5), 976-990; Oaks et al. Discov Med. 2018, 26(144), 197-206). […]
A water tank was filled with water that was cooled to 3° C. […] Dependent measures of the CPT included pain tolerance (sec) and subjective ratings of painfulness, unpleasantness and stress as assessed 10 cm visual analogue scales. Water temperature at onset and completion of the CPT were assessed as control measure.
as §3, with “treatment.” for “treatment. Mean contrast (LSD dose versus placebo) tests were conducted for measuring the significance of individual dose effects, relative to placebo.”

For `CCN(CC)C(=O)[C@@H]1C=C2c3cccc4[nH]cc(c34)C[C@H]2N(C)C1` [LSD, (D)-lysergic acid diethylamide], the concentration at 1.5 h ([1]; 1.5 hours after administration) was 0.482 ng/mL, the concentration at 6 h ([1]; 6 hours post treatment) was 0.223 ng/mL and the diastolic blood pressure (healthy participants [2]) was “slightly increased”. The heart rate (healthy participants [2]) was “not affected”, the systolic blood pressure (healthy participants [2]) was “slightly increased” and the “stress during the CPT (10 cm visual analogue scale)” value (healthy participants [3]) was “did not lead to a significant change; also recorded: not affected”. The “pain tolerance during the CPT” value (healthy participants [3]; p=0.006) was “significant increase; also recorded: significantly increased”, the “unpleasantness during the CPT (10 cm visual analogue scale)” value (healthy participants [3]; p=0.008) was “significant decrease; also recorded: decreased” and the “painfulness during the CPT (10 cm visual analogue scale)” value (healthy participants [3]; p=0.012) was “significant decrease; also recorded: decreased”.
